In the supplement of paper PMC10307832:

Tests used:
Assay in all cases: relative viability (nuclei count vs DMSO), 5 days (fraction); higher = more cells survive
GSK126 + Trametinib = compound: CC[C@H](C)N1C=C(C2=C(C=C(C=C21)C3=CN=C(C=C3)N4CCNCC4)C(=O)NCC5=C(C=C(NC5=O)C)C)C [GSK126] + CC(=O)Nc1cccc(-n2c(=O)n(C3CC3)c(=O)c3c(Nc4ccc(I)cc4F)n(C)c(=O)c(C)c32)c1 [Trametinib] (partner 0.02 µM)
Summary of the method: (§1)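 Lung cancer cell lines in 1536-well plates were dosed by pin tool the day after seeding, either with one drug alone or with a fixed anchor-drug dose plus five library-drug doses (not always all listed) in √10 steps. After 5 days, cells were fixed and their nuclei stained in one step (final 0.05% Triton X-100, 1% formaldehyde, 1 ug/ml Hoechst), then counted on 4× images. Relative viability is the nuclei count in treated wells divided by that in vehicle wells. Values are medians of duplicate plates.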

Carboplatin + Tozasertib = compound: C1CC(C1)(C(=O)O)C(=O)O.[NH2-].[NH2-].[Pt+2] [Carboplatin] + Cc1cc(Nc2cc(N3CCN(C)CC3)nc(Sc3ccc(NC(=O)C4CC4)cc3)n2)n[nH]1 [Tozasertib] (partner 0.1 µM)
Summary of the method: as §1

MLN4924 + Dasatinib = compound: NS(=O)(=O)OC[C@@H]1C[C@@H](n2ccc3c(N[C@H]4CCc5ccccc54)ncnc32)C[C@@H]1O [MLN4924] + Cc1nc(Nc2ncc(C(=O)Nc3c(C)cccc3Cl)s2)cc(N2CCN(CCO)CC2)n1 [Dasatinib] (partner 0.075 µM)
Summary of the method: as §1

GSK126 + Pemetrexed = compound: CC[C@H](C)N1C=C(C2=C(C=C(C=C21)C3=CN=C(C=C3)N4CCNCC4)C(=O)NCC5=C(C=C(NC5=O)C)C)C [GSK126] + Nc1nc2[nH]cc(CCc3ccc(C(=O)N[C@@H](CCC(=O)O)C(=O)O)cc3)c2c(=O)[nH]1 [Pemetrexed] (partner 0.2 µM)
Summary of the method: as §1

NCI-H441
relative viability (GSK126 + Trametinib; first compound 0.08 µM): 0.538
relative viability (GSK126 + Trametinib; first compound 0.253 µM): 0.471
relative viability (GSK126 + Trametinib; first compound 0.8 µM): 0.571
relative viability (GSK126 + Trametinib; first compound 2.53 µM): 0.483
relative viability (GSK126 + Trametinib; first compound 8 µM): 0.343
relative viability (Carboplatin + Tozasertib; first compound 0.08 µM): 0.746
relative viability (Carboplatin + Tozasertib; first compound 0.253 µM): 0.687
relative viability (Carboplatin + Tozasertib; first compound 0.8 µM): 0.508
relative viability (Carboplatin + Tozasertib; first compound 2.53 µM): 0.454
relative viability (Carboplatin + Tozasertib; first compound 8 µM): 0.469
relative viability (MLN4924 + Dasatinib; first compound 0.04 µM): 0.603
relative viability (MLN4924 + Dasatinib; first compound 0.1265 µM): 0.47
relative viability (MLN4924 + Dasatinib; first compound 0.4 µM): 0.337
relative viability (MLN4924 + Dasatinib; first compound 1.265 µM): 0.212
relative viability (MLN4924 + Dasatinib; first compound 4 µM): 0.141
relative viability (GSK126 + Pemetrexed; first compound 0.08 µM): 0.289
relative viability (GSK126 + Pemetrexed; first compound 0.253 µM): 0.281
relative viability (GSK126 + Pemetrexed; first compound 0.8 µM): 0.272
relative viability (GSK126 + Pemetrexed; first compound 2.53 µM): 0.248
relative viability (GSK126 + Pemetrexed; first compound 8 µM): 0.267

NCI-H460
relative viability (GSK126 + Trametinib; first compound 0.08 µM): 0.422
relative viability (GSK126 + Trametinib; first compound 0.253 µM): 0.153
relative viability (GSK126 + Trametinib; first compound 0.8 µM): 0.121
relative viability (GSK126 + Trametinib; first compound 2.53 µM): 0.11
relative viability (GSK126 + Trametinib; first compound 8 µM): 0.195
relative viability (Carboplatin + Tozasertib; first compound 0.08 µM): 0.54
relative viability (Carboplatin + Tozasertib; first compound 0.253 µM): 0.462
relative viability (Carboplatin + Tozasertib; first compound 0.8 µM): 0.387
relative viability (Carboplatin + Tozasertib; first compound 2.53 µM): 0.237
relative viability (Carboplatin + Tozasertib; first compound 8 µM): 0.168
relative viability (MLN4924 + Dasatinib; first compound 0.04 µM): 0.495
relative viability (MLN4924 + Dasatinib; first compound 0.1265 µM): 0.657
relative viability (MLN4924 + Dasatinib; first compound 0.4 µM): 0.849
relative viability (MLN4924 + Dasatinib; first compound 1.265 µM): 0.377
relative viability (MLN4924 + Dasatinib; first compound 4 µM): 0.0538
relative viability (GSK126 + Pemetrexed; first compound 0.08 µM): 0.0714
relative viability (GSK126 + Pemetrexed; first compound 0.253 µM): 0.0516
relative viability (GSK126 + Pemetrexed; first compound 0.8 µM): 0.0631
relative viability (GSK126 + Pemetrexed; first compound 2.53 µM): 0.0635
relative viability (GSK126 + Pemetrexed; first compound 8 µM): 0.0781

NCI-H520
relative viability (GSK126 + Trametinib; first compound 0.08 µM): 0.748
relative viability (GSK126 + Trametinib; first compound 0.253 µM): 0.665
relative viability (GSK126 + Trametinib; first compound 0.8 µM): 0.563
relative viability (GSK126 + Trametinib; first compound 2.53 µM): 0.807
relative viability (GSK126 + Trametinib; first compound 8 µM): 0.817
relative viability (Carboplatin + Tozasertib; first compound 0.08 µM): 0.5
relative viability (Carboplatin + Tozasertib; first compound 0.253 µM): 0.433
relative viability (Carboplatin + Tozasertib; first compound 0.8 µM): 0.438
relative viability (Carboplatin + Tozasertib; first compound 2.53 µM): 0.389
relative viability (Carboplatin + Tozasertib; first compound 8 µM): 0.459
relative viability (MLN4924 + Dasatinib; first compound 0.04 µM): 0.216
relative viability (MLN4924 + Dasatinib; first compound 0.1265 µM): 0.225
relative viability (MLN4924 + Dasatinib; first compound 0.4 µM): 0.253
relative viability (MLN4924 + Dasatinib; first compound 1.265 µM): 0.171
relative viability (MLN4924 + Dasatinib; first compound 4 µM): 0.173
relative viability (GSK126 + Pemetrexed; first compound 0.08 µM): 0.781
relative viability (GSK126 + Pemetrexed; first compound 0.253 µM): 0.792
relative viability (GSK126 + Pemetrexed; first compound 0.8 µM): 0.743
relative viability (GSK126 + Pemetrexed; first compound 2.53 µM): 0.705
relative viability (GSK126 + Pemetrexed; first compound 8 µM): 0.733

NCI-H522
relative viability (GSK126 + Trametinib; first compound 0.08 µM): 0.773
relative viability (GSK126 + Trametinib; first compound 0.253 µM): 0.716
relative viability (GSK126 + Trametinib; first compound 0.8 µM): 0.647
relative viability (GSK126 + Trametinib; first compound 2.53 µM): 0.654
relative viability (GSK126 + Trametinib; first compound 8 µM): 0.829
relative viability (Carboplatin + Tozasertib; first compound 0.08 µM): 0.63
relative viability (Carboplatin + Tozasertib; first compound 0.253 µM): 0.604
relative viability (Carboplatin + Tozasertib; first compound 0.8 µM): 0.547
relative viability (Carboplatin + Tozasertib; first compound 2.53 µM): 0.525
relative viability (Carboplatin + Tozasertib; first compound 8 µM): 0.528
relative viability (MLN4924 + Dasatinib; first compound 0.04 µM): 0.845
relative viability (MLN4924 + Dasatinib; first compound 0.1265 µM): 0.863
relative viability (MLN4924 + Dasatinib; first compound 0.4 µM): 0.652
relative viability (MLN4924 + Dasatinib; first compound 1.265 µM): 0.546
relative viability (MLN4924 + Dasatinib; first compound 4 µM): 0.437
relative viability (GSK126 + Pemetrexed; first compound 0.08 µM): 1.02
relative viability (GSK126 + Pemetrexed; first compound 0.253 µM): 0.772
relative viability (GSK126 + Pemetrexed; first compound 0.8 µM): 0.95
relative viability (GSK126 + Pemetrexed; first compound 2.53 µM): 0.865
relative viability (GSK126 + Pemetrexed; first compound 8 µM): 1.06

NCI-H596
relative viability (GSK126 + Trametinib; first compound 0.08 µM): 0.803
relative viability (GSK126 + Trametinib; first compound 0.253 µM): 0.687
relative viability (GSK126 + Trametinib; first compound 0.8 µM): 0.697
relative viability (GSK126 + Trametinib; first compound 2.53 µM): 0.862
relative viability (GSK126 + Trametinib; first compound 8 µM): 0.733
relative viability (Carboplatin + Tozasertib; first compound 0.08 µM): 0.985
relative viability (Carboplatin + Tozasertib; first compound 0.253 µM): 0.98
relative viability (Carboplatin + Tozasertib; first compound 0.8 µM): 0.907
relative viability (Carboplatin + Tozasertib; first compound 2.53 µM): 0.77
relative viability (Carboplatin + Tozasertib; first compound 8 µM): 0.491
relative viability (MLN4924 + Dasatinib; first compound 0.04 µM): 0.623
relative viability (MLN4924 + Dasatinib; first compound 0.1265 µM): 0.594
relative viability (MLN4924 + Dasatinib; first compound 1.265 µM): 0.644
relative viability (MLN4924 + Dasatinib; first compound 4 µM): 0.744
relative viability (GSK126 + Pemetrexed; first compound 0.08 µM): 0.496
relative viability (GSK126 + Pemetrexed; first compound 0.253 µM): 0.464
relative viability (GSK126 + Pemetrexed; first compound 0.8 µM): 0.441
relative viability (GSK126 + Pemetrexed; first compound 2.53 µM): 0.45
relative viability (GSK126 + Pemetrexed; first compound 8 µM): 0.472

NCI-H647
relative viability (GSK126 + Trametinib; first compound 0.08 µM): 0.55
relative viability (GSK126 + Trametinib; first compound 0.253 µM): 0.461
relative viability (GSK126 + Trametinib; first compound 0.8 µM): 0.381
relative viability (GSK126 + Trametinib; first compound 2.53 µM): 0.44
relative viability (GSK126 + Trametinib; first compound 8 µM): 0.413
relative viability (Carboplatin + Tozasertib; first compound 0.08 µM): 0.402
relative viability (Carboplatin + Tozasertib; first compound 0.253 µM): 0.488
relative viability (Carboplatin + Tozasertib; first compound 0.8 µM): 0.272
relative viability (Carboplatin + Tozasertib; first compound 2.53 µM): 0.239
relative viability (Carboplatin + Tozasertib; first compound 8 µM): 0.229
relative viability (MLN4924 + Dasatinib; first compound 0.04 µM): 0.235
relative viability (MLN4924 + Dasatinib; first compound 0.1265 µM): 0.195
relative viability (MLN4924 + Dasatinib; first compound 0.4 µM): 0.113
relative viability (MLN4924 + Dasatinib; first compound 1.265 µM): 0.0353
relative viability (MLN4924 + Dasatinib; first compound 4 µM): 0.0361
relative viability (GSK126 + Pemetrexed; first compound 0.08 µM): 0.236
relative viability (GSK126 + Pemetrexed; first compound 0.253 µM): 0.197
relative viability (GSK126 + Pemetrexed; first compound 0.8 µM): 0.188
relative viability (GSK126 + Pemetrexed; first compound 2.53 µM): 0.163
relative viability (GSK126 + Pemetrexed; first compound 8 µM): 0.19

NCI-H650
relative viability (GSK126 + Trametinib; first compound 0.08 µM): 1.02
relative viability (GSK126 + Trametinib; first compound 0.253 µM): 0.891
relative viability (GSK126 + Trametinib; first compound 0.8 µM): 0.919
relative viability (GSK126 + Trametinib; first compound 2.53 µM): 0.945
relative viability (GSK126 + Trametinib; first compound 8 µM): 0.994
relative viability (Carboplatin + Tozasertib; first compound 0.08 µM): 0.768
relative viability (Carboplatin + Tozasertib; first compound 0.253 µM): 0.766
relative viability (Carboplatin + Tozasertib; first compound 0.8 µM): 0.638
relative viability (Carboplatin + Tozasertib; first compound 2.53 µM): 0.661
relative viability (Carboplatin + Tozasertib; first compound 8 µM): 0.453
relative viability (MLN4924 + Dasatinib; first compound 0.04 µM): 0.407
relative viability (MLN4924 + Dasatinib; first compound 0.1265 µM): 0.418
relative viability (MLN4924 + Dasatinib; first compound 0.4 µM): 0.236
relative viability (MLN4924 + Dasatinib; first compound 1.265 µM): 0.215
relative viability (MLN4924 + Dasatinib; first compound 4 µM): 0.193
relative viability (GSK126 + Pemetrexed; first compound 0.08 µM): 1.09
relative viability (GSK126 + Pemetrexed; first compound 0.253 µM): 0.825
relative viability (GSK126 + Pemetrexed; first compound 0.8 µM): 0.935
relative viability (GSK126 + Pemetrexed; first compound 2.53 µM): 0.903
relative viability (GSK126 + Pemetrexed; first compound 8 µM): 1.24

NCI-H661
relative viability (GSK126 + Trametinib; first compound 0.08 µM): 0.632
relative viability (GSK126 + Trametinib; first compound 0.253 µM): 0.548
relative viability (GSK126 + Trametinib; first compound 0.8 µM): 0.523
relative viability (GSK126 + Trametinib; first compound 2.53 µM): 0.596
relative viability (GSK126 + Trametinib; first compound 8 µM): 0.687
relative viability (Carboplatin + Tozasertib; first compound 0.08 µM): 0.371
relative viability (Carboplatin + Tozasertib; first compound 0.253 µM): 0.336
relative viability (Carboplatin + Tozasertib; first compound 0.8 µM): 0.33
relative viability (Carboplatin + Tozasertib; first compound 2.53 µM): 0.301
relative viability (Carboplatin + Tozasertib; first compound 8 µM): 0.348
relative viability (MLN4924 + Dasatinib; first compound 0.04 µM): 1
relative viability (MLN4924 + Dasatinib; first compound 0.1265 µM): 1.05
relative viability (MLN4924 + Dasatinib; first compound 0.4 µM): 0.556
relative viability (MLN4924 + Dasatinib; first compound 1.265 µM): 0.256
relative viability (MLN4924 + Dasatinib; first compound 4 µM): 0.362
relative viability (GSK126 + Pemetrexed; first compound 0.08 µM): 0.982
relative viability (GSK126 + Pemetrexed; first compound 0.253 µM): 0.897
relative viability (GSK126 + Pemetrexed; first compound 0.8 µM): 0.991
relative viability (GSK126 + Pemetrexed; first compound 2.53 µM): 0.914
relative viability (GSK126 + Pemetrexed; first compound 8 µM): 0.967
